Results on two compounds are retold here after patent US11123295B2, “Encholeated antifungal compounds for central nervous system delivery and treatment of Cryptococcus infections” (priority 2016, dated 2021).

Several values for one entry are separate records, joined by “and”; a condition that tells them apart may be missing. Identical values can stand only once.

Type in all cases: in vivo
Assay [1] relates to C. neoformans strain H99. Kind of assay: Trial 3: survival of C. neoformans-infected mice. The procedure: (§1) Animals were dosed once or twice daily as stated in Table 3 following daily body weight measurements. 5 mice were used per treatment group and a group of 5 infected, untreated mice was used as a control. […] Fluconazole, where indicated, was dosed either alone or in combination at 25 mg/kg/day in two doses by oral gavage. Agent administration began 72 hours following infection and continued once daily for 28 consecutive days.
Survival and brain studies for each of the three trials were used to determine antifungal efficacy. Mortality was recorded throughout each of the three trials. The animals were necropsied at death and the brain was removed aseptically, weighed, and homogenized in 1 milliliter sterile water. The microbiological response to antifungal treatment was evaluated by concentration (in CFU per gram) of C. neoformans in brain tissue. Serial dilutions using sterile PBS of homogenized brain were plated in duplicate onto YPD agar plates. Culture plates were incubated at 37° C. for 48 hours, after which the CFU were counted and the number of CFU per gram of brain tissue was calculated. The method was sensitive for detection of >10 CFU/g. The culture-negative plates were counted as having 0 CFU/g.

For assay [2], the system named is C. neoformans strain H99. Kind of assay: Trial 2: survival of C. neoformans-infected mice. The following applies: oral 250 mg/kg/day in drinking water. The procedure:
Mice were inoculated with C. neoformans, strain H99/ATCC 208821, (American Type Culture Collection, Rockville, Md.), which was prepared as follows. Cells from a C. neoformans suspension were streaked onto yeast extract peptone dextrose (YPD) agar plates, which were then incubated at 37° C. for 48 hours. A well-separated colony was resuspended in 25 milliliters YPD broth containing chloramphenicol and incubated in a flask on a shaking incubator at 37° C. overnight. The cells were recovered by centrifugation at 4,000 rpm for 5 minutes and washed two times in phosphate-buffered saline (PBS) by resuspension and centrifugation. Challenge organisms were quantified by hemocytometry and were diluted with PBS to a final concentration of 10^5 organisms per milliliter. The viable count was confirmed by serially diluting the C. neoformans suspension and plating the inoculum onto YPD agar plates. […]
Survival and brain studies for each of the three trials were used to determine antifungal efficacy. Mortality was recorded throughout each of the three trials. […] The microbiological response to antifungal treatment was evaluated by concentration (in CFU per gram) of C. neoformans in brain tissue. […] Culture plates were incubated at 37° C. for 48 hours, after which the CFU were counted and the number of CFU per gram of brain tissue was calculated. […] The culture-negative plates were counted as having 0 CFU/g. […]

Assay [3] has as its system C. neoformans strain H99. The assay can be described thus: Trial 3: CFU per gram of brain tissue at death. The conditions noted are these: PO BID 25 mg/kg/day, individual mice 1-5. The procedure: as §1
Survival and brain studies for each of the three trials were used to determine antifungal efficacy. Mortality was recorded throughout each of the three trials. The animals were necropsied at death and the brain was removed aseptically, weighed, and homogenized in 1 milliliter sterile water. The microbiological response to antifungal treatment was evaluated by concentration (in CFU per gram) of C. neoformans in brain tissue. Serial dilutions using sterile PBS of homogenized brain were plated in duplicate onto YPD agar plates. Culture plates were incubated at 37° C. for 48 hours, after which the CFU were counted and the number of CFU per gram of brain tissue was calculated. The method was sensitive for detection of >10 CFU/g. The culture-negative plates were counted as having 0 CFU/g. […]

Regarding `Nc1[nH]c(=O)ncc1F` [5-Flucytosine], the “Median survival” value in the assay on C. neoformans strain H99 [1] (oral 250 mg/kg/day in water) was found to be 47 days; in the assay on C. neoformans strain H99 [2], 34 days.
Turning to `OC(Cn1cncn1)(Cn1cncn1)c1ccc(F)cc1F` [Fluconazole], the “Median survival” value in the assay on C. neoformans strain H99 [1] (PO BID 25 mg/kg/day) stood at 53 days. The “Number of CFU/g of Brain” value in the assay on C. neoformans strain H99 [3] is 4,200,000 CFU/g and 4,300,000 CFU/g and 3,900,000 CFU/g and 6,800,000 CFU/g and 11,300,000 CFU/g.
